This test concerns BDF1 mice, B16 melanoma ip, median survival T/C. Nature of the test: NCI In Vivo Anticancer Drug Screen. Data for tumor model B16 Melanoma (intraperitoneal) in B6D2F1 (BDF1) mice. The conditions noted are these: endpoint: median survival time, higher = longer survival. The gist of the method: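 Vehicle-treated animals serve as the reference (C); treated animals (T) are scored for survival or tumor size after tumor transplantation.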

Setting [1] is: dose: 100.0 mg/kg/injection, schedule: Q01DX009 (ip), vehicle: Klucel (hydroxypropylcellulose) (HPC).
[2] abbreviates: dose: 200.0 mg/kg/injection, schedule: Q01DX009 (ip), vehicle: Klucel (hydroxypropylcellulose) (HPC).
Where [3] appears, read: dose: 12.5 mg/kg/injection, schedule: Q01DX009 (ip), vehicle: saline with Tween-80.
[4] abbreviates: dose: 25.0 mg/kg/injection, schedule: Q01DX009 (ip), vehicle: saline with Tween-80.
Where [5] appears, read: dose: 25.0 mg/kg/injection, schedule: Q01DX009 (ip), vehicle: Klucel (hydroxypropylcellulose) (HPC).
Where [6] appears, read: dose: 50.0 mg/kg/injection, schedule: Q01DX009 (ip), vehicle: Klucel (hydroxypropylcellulose) (HPC).
Where [7] appears, read: dose: 12.5 mg/kg/injection, schedule: Q01DX009 (ip), vehicle: Klucel (hydroxypropylcellulose) (HPC).
Where [8] appears, read: dose: 50.0 mg/kg/injection, schedule: Q01DX009 (ip), vehicle: saline with Tween-80.
[9] abbreviates: dose: 100.0 mg/kg/injection, schedule: Q01DX009 (ip), vehicle: saline with Tween-80.
Where [10] appears, read: dose: 200.0 mg/kg/injection, schedule: Q01DX009 (ip), vehicle: saline with Tween-80.
[11] abbreviates: dose: 400.0 mg/kg/injection, schedule: Q01DX009 (ip), vehicle: saline with Tween-80.

The structures appear in SMILES notation. “And” between values parts separate entries of the source, which are not always exact repeats. Equal values may be shown once. Toxic doses and inconclusive results are not listed. Square brackets hold non-standard residues; d marks the D form. Peptide text beside a SMILES is read from it. * marks the point of attachment. ξ: configuration not given here. Cbz = O=C(OCc1ccccc1)*; ξNle = CCCCC(N)C(=O)O

For the compound `Cc1cc(C)c(NC(=O)Nc2ccccc2C)c(C)c1`, the T/C runs as follows: (dose: 25.0 mg/kg/injection, schedule: Q04DX003 (ip), vehicle: Klucel (hydroxypropylcellulose) (HPC)) 102 % of control; (dose: 50.0 mg/kg/injection, schedule: Q04DX003 (ip), vehicle: Klucel (hydroxypropylcellulose) (HPC)) 97 % of control; (dose: 100.0 mg/kg/injection, schedule: Q04DX003 (ip), vehicle: Klucel (hydroxypropylcellulose) (HPC)) 90 % of control.
With `Brc1ccc(C[N+]23CN4CN(CN(C4)C2)C3)cc1`, the T/C is, setting by setting: under setting [1], 121 % of control; under setting [2], 115 % of control.
Turning to `ClC1=C(Cl)C2(Cl)C3C(Cl)C(Cl)CC3C1(Cl)C2(Cl)Cl` (stereo unspecified), the T/C under setting [3] was 95 % of control and the T/C under setting [4] is 97 % of control.
`CCCCN(c1ccccc1)c1ncnc2c1cnn2C`: the T/C is 100 % of control (dose: 100.0 mg/kg/injection, schedule: Q04DX003 (ip), vehicle: saline with Tween-80); 102 % of control (dose: 200.0 mg/kg/injection, schedule: Q04DX003 (ip), vehicle: saline with Tween-80); 100 % of control (dose: 400.0 mg/kg/injection, schedule: Q04DX003 (ip), vehicle: saline with Tween-80).
On to `CCNC(C)(C)C(SSSC(c1cccs1)C(C)(C)NCC)c1cccs1` (stereo unspecified), for which the T/C reads like this: under setting [5], 100 % of control; under setting [6], 94 % of control.
For the compound `N#CCCN(C(=O)COc1ccc(Cl)cc1Cl)C1CCCCC1`, the T/C under setting [7] is 99 % of control, the T/C under setting [5] was 103 % of control and the T/C under setting [6] was 98 % of control.
For `CC(=O)OC1CCC2(C)C(CCC3C4CC=C(C(C)=O)C4(C)CCC32)C1` (stereo unspecified), the T/C runs as follows: under setting [1], 86 % of control; under setting [2], 98 % of control; (dose: 400.0 mg/kg/injection, schedule: Q01DX009 (ip), vehicle: Klucel (hydroxypropylcellulose) (HPC)) 90 % of control.
In the case of `C=C1C(O)C2(O)OCC34C(CC5C(C)=CC(=O)C(O)C5(C)C23)OC(=O)C(OC(=O)C(C)(O)CC)C14` (stereo unspecified), the T/C was 109 % of control (dose: 0.06 mg/kg/injection, schedule: Q01DX009 (ip), vehicle: saline + alcohol) and 163 % of control (dose: 1.0 mg/kg/injection, schedule: Q01DX009 (ip), vehicle: saline + alcohol).
`CCCCC(NC(=O)OCc1ccccc1)C(=O)NCC(=O)OC` (stereo unspecified) (Cbz-[ξNle]-Gly-OMe): the T/C is 96 % of control under setting [8], 115 % of control under setting [9], 112 % of control under setting [10] and 92 % of control under setting [11].
In the case of `CCCCCCCCCCCCCCCCN(C)S(=O)(=O)c1ccc2sc(SC)[n+](C)c2c1` (tested in a mixture with another compound), the T/C (dose: 12.5 mg/kg/injection, schedule: Q04DX003 (ip), vehicle: saline with Tween-80) is 100 % of control and the T/C (dose: 25.0 mg/kg/injection, schedule: Q04DX003 (ip), vehicle: saline with Tween-80) is 100 % of control.
For `CCCCCCCCCCCCCOC(=O)CC(C(=O)OCCCCCCCCCCCCC)S(=O)(=O)O` (stereo unspecified), the T/C is, setting by setting: under setting [7], 106 % of control; under setting [5], 108 % of control; under setting [6], 106 % of control; under setting [1], 93 % of control; under setting [2], 111 % of control.
As for `C1COC(NC2CC3CCC2C3)=N1` (stereo unspecified), the T/C runs as follows: (dose: 6.25 mg/kg/injection, schedule: Q01DX009 (ip), vehicle: saline with Tween-80) 107 % of control; under setting [3], 100 % of control; under setting [4], 100 % of control.
On to `O=[N+]([O-])c1cccnc1Oc1cccc(C(F)(F)F)c1`, for which the T/C runs as follows: (dose: 135.0 mg/kg/injection, schedule: Q04DX003 (ip), vehicle: Klucel (hydroxypropylcellulose) (HPC)) 110 % of control; (dose: 195.0 mg/kg/injection, schedule: Q04DX003 (ip), vehicle: Klucel (hydroxypropylcellulose) (HPC)) 115 % of control; (dose: 450.0 mg/kg/injection, schedule: Q04DX003 (ip), vehicle: Klucel (hydroxypropylcellulose) (HPC)) 100 % of control.
Regarding `Nc1n[nH]c(=O)[nH]1`, the T/C by setting is: under setting [5], 107 % of control; under setting [6], 98 % of control; under setting [1], 109 % of control; under setting [2], 107 % of control.
As for `O=C(O)CCN1C(=O)c2ccccc2C1=O`, the T/C reads like this: under setting [8], 102 % of control; under setting [9], 95 % of control; under setting [10], 90 % of control.
Turning to `c1ccc(C[P+](c2ccccc2)(c2ccccc2)c2ccccc2)cc1`, the T/C is 92 % of control (dose: 2.5 mg/kg/injection, schedule: Q01DX009 (ip), vehicle: other); 94 % of control (dose: 5.0 mg/kg/injection, schedule: Q01DX009 (ip), vehicle: other); 94 % of control (dose: 10.0 mg/kg/injection, schedule: Q01DX009 (ip), vehicle: other); 89 % of control (dose: 20.0 mg/kg/injection, schedule: Q01DX009 (ip), vehicle: other).
For `CC1NC(=O)C2Cc3ccc(O)c(c3)Oc3ccc(cc3)C(O)C(C(=O)N2C)N(C)C(=O)C(C)NC(=O)C(Cc2ccc(O)cc2)N(C)C(=O)C(C)NC1=O` (stereo unspecified), the T/C was 97 % of control (dose: 1.0 mg/kg/injection, schedule: Q01DX009 (ip), vehicle: saline with Tween-80); 91 % of control (dose: 2.0 mg/kg/injection, schedule: Q01DX009 (ip), vehicle: saline with Tween-80); 99 % of control (dose: 4.0 mg/kg/injection, schedule: Q01DX009 (ip), vehicle: saline with Tween-80); 96 % of control (dose: 8.0 mg/kg/injection, schedule: Q01DX009 (ip), vehicle: saline with Tween-80); 94 % of control (dose: 16.0 mg/kg/injection, schedule: Q01DX009 (ip), vehicle: saline with Tween-80).
For the compound `COC(=O)[C@@H]1c2cc3c(c(O)c2[C@@H](OC2OC(C)C(OC)C(C)(OC)C2OC)C[C@]1(C)O)C(=O)c1c(O)cc2c(c1C3=O)O[C@H]1O[C@]2(C)[C@H](O)[C@@H](N(C)C)[C@@H]1O` (stereo partly specified), the T/C is 171 % of control (dose: 250.0 micrograms/kg/injection, schedule: Q01DX009 (ip), vehicle: other); 171 % of control (dose: 500.0 micrograms/kg/injection, schedule: Q01DX009 (ip), vehicle: other); 100 % of control (dose: 648.0 micrograms/kg/injection, schedule: Q04DX003 (ip), vehicle: lactic acid); 107 % of control and 121 % of control (dose: 1080.0 micrograms/kg/injection, schedule: Q04DX003 (ip), vehicle: lactic acid); 110 % of control (dose: 1800.0 micrograms/kg/injection, schedule: Q04DX003 (ip), vehicle: lactic acid).
On to `Nc1nc(Cl)c2[nH]cnc2n1`, for which the T/C is 114 % of control (dose: 0.09 mg/kg/injection, schedule: Q01DX009 (ip), vehicle: other); 113 % of control (dose: 0.19 mg/kg/injection, schedule: Q01DX009 (ip), vehicle: other); 105 % of control (dose: 0.38 mg/kg/injection, schedule: Q01DX009 (ip), vehicle: other); 88 % of control and 111 % of control (dose: 0.75 mg/kg/injection, schedule: Q01DX009 (ip), vehicle: other); 110 % of control (dose: 1.5 mg/kg/injection, schedule: Q01DX009 (ip), vehicle: other); 101 % of control and 108 % of control (dose: 3.0 mg/kg/injection, schedule: Q01DX009 (ip), vehicle: other). The T/C (dose: 6.0 mg/kg/injection, schedule: Q01DX009 (ip), vehicle: other) was 89 % of control and the T/C (dose: 50.0 mg/kg/injection, schedule: Q01DX009 (ip), vehicle: other) is 93 % of control.
With `CCOc1ccc2cc(S(=O)(=O)O)ccc2c1N`, the T/C is, setting by setting: under setting [9], 95 % of control; under setting [10], 87 % of control; under setting [11], 95 % of control.
In the case of `COc1ccccc1N1CCCSC1=Nc1ccccc1`, the T/C under setting [7] is 98 % of control; the T/C under setting [5] is 95 % of control; the T/C under setting [6] was 95 % of control; the T/C under setting [1] was 100 % of control; the T/C under setting [2] is 100 % of control.
For the compound `Cc1ccc(NS(=O)(=O)c2cccc([N+](=O)[O-])c2)cc1Cl`, the T/C under setting [9] is 107 % of control, the T/C under setting [10] was 105 % of control and the T/C under setting [11] is 96 % of control.
As for `CCCCCCCC(=O)CCC`, the T/C reads like this: under setting [1], 105 % of control; under setting [2], 96 % of control.
For the compound `O=C(O)/C=C/C(=O)Nc1cccc(Oc2ccc([N+](=O)[O-])cc2[N+](=O)[O-])c1`, the T/C (dose: 150.0 mg/kg/injection, schedule: Q01DX009 (ip), vehicle: Klucel (hydroxypropylcellulose) (HPC)) was 90 % of control and the T/C (dose: 300.0 mg/kg/injection, schedule: Q01DX009 (ip), vehicle: Klucel (hydroxypropylcellulose) (HPC)) is 107 % of control.
